Test results taken from US20250205344A1, “2,4-DIOXOTETRAHYDROPYRIMIDINYL DERATIVES AS DEGRONS IN PROTACS” (GLAXOSMITHKLINE INTELLECTUAL PROPERTY DEVELOPMENT LIMITED, priority 2022, published 2025).
Structures can show the parent of a compound that is named as a salt.

biological target: T1, Full length Cereblon protein (6His tev Cereblon/6His tev DDB1ΔBPB) (Homo sapiens, UniProt Q96SW2); experiment: Cereblon Binding Assay (TR-FRET); details: 5 nM protein, 50 nM Alexa647-lenalidomide ligand, read-out: Mean pIC50 (converted)
T1 construct: Full length Cereblon protein (6His tev Cereblon/6His tev DDB1ΔBPB) was expressed and purified from E. coli; made in house; host or cells: E. coli
T1 sequence (Q96SW2 whole entry, stated change not applied): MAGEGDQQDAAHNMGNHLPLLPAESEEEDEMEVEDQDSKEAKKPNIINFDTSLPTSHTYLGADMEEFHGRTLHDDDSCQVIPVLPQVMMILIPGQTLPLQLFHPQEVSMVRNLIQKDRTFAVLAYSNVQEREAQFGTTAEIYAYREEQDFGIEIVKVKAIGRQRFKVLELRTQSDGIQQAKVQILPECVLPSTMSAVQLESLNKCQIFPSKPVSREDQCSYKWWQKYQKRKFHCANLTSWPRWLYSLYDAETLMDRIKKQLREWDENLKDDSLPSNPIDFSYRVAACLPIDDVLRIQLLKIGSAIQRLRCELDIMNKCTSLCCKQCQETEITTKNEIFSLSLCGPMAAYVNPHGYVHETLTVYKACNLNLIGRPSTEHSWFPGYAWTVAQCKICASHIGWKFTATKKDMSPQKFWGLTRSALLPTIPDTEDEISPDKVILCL
Method: Full length Cereblon protein (6His tev Cereblon/6His tev DDB1ΔBPB) was expressed and purified from E. coli to monitor compound binding. […] A Thermo Scientific Multidrop Combi was used to dispense 5 μL of 10 nM protein in assay buffer of 50 mM
HEPES, 150 mM NaCl, 5% glycerol, 1 mM DTT and 1 mM CHAPS, pH 7.4, in the presence of 100 nM fluorescent ligand (Final assay concentrations of 5 nM protein and 50 nM ligand). After equilibrating for 15 min in the dark at room temperature a 5 μL addition was made of 2 nM europium chelate labelled anti-6His antibody (Perkin Elmer, W1024, AD0111) in assay buffer (1 nM FAC). […] TR-FRET ratio data was normalised to high (DMSO) and low (reaction in the absence of protein) controls and pIC50 values determined for each of the compounds tested by fitting the fluorescence ratio data to a four parameter model:
[formula] • where ‘a’ is the minimum, ‘b’ is the maximum, ‘c’ is the pIC50 and ‘d’ is the Hill slope.

**Q.** How did the IC50 turn out when Cn1ccc2c(N3CCC(=O)NC3=O)cccc21 [ECB45, 1-(1-Methyl-1H-indol-4-yl)dihydropyrimidine-2,4(1H,3H)-dione] was run?
**A.** 100 nM

**Q.** Which IC50 does the source give for O=C1CCN(c2ncnc3c2ccn3C2CCNCC2)C(=O)N1 [ECB17, 1-(7-(piperidin-4-yl)-7H-pyrrolo[2,3-d]pyrimidin-4-yl)dihydropyrimidine-2,4(1H,3H)-dione] here?
**A.** 316 nM

**Q.** Which IC50 does the source give for O=C1CCN(c2cc(Cl)cc3c2ccn3C2CCNCC2)C(=O)N1 [ECB9, 1-(6-Chloro-1-(piperidin-4-yl)-1H-indol-4-yl)dihydropyrimidine-2,4(1H,3H)-dione] here?
**A.** 7.94 nM

**Q.** Which IC50 does the source give for O=C1CCN(c2cc(C(F)(F)F)cc3c2cnn3C2CCNCC2)C(=O)N1 [ECB30, 1-(1-(piperidin-4-yl)-6-(trifluoromethyl)-1H-indazol-4-yl)dihydropyrimidine-2,4(1H,3H)-dione] here?
**A.** 245 nM

**Q.** With O=C1CCN(c2cccc3c2cnn3C2CCNCC2)C(=O)N1 [ECB18, 1-(1-(Piperidin-4-yl)-1H-indazol-4-yl)dihydropyrimidine-2,4(1H,3H)-dione] as the compound, how does the IC50 read?
**A.** 10 nM

**Q.** With O=C1CCN(c2cc(C(F)(F)F)cc3c2ccn3C2CCNCC2)C(=O)N1 [ECB37, 1-(1-(piperidin-4-yl)-6-(trifluoromethyl)-1H-indol-4-yl)dihydropyrimidine-2,4(1H,3H)-dione] as the compound, how does the IC50 read?
**A.** 55 nM

**Q.** With CCn1ccc2c(N3CCC(=O)NC3=O)cncc21 [ECB51, 1-(1-Ethyl-1H-pyrrolo[2,3-c]pyridin-4-yl)dihydropyrimidine-2,4(1H,3H)-dione] as the compound, how does the IC50 read?
**A.** 25.1 nM

**Q.** Which IC50 does the source give for CC(C)n1ccc2c(N3CCC(=O)NC3=O)cc(C(=O)N(C)CC3CCNCC3)cc21 [ECB16, 4-(2,4-Dioxotetrahydropyrimidin-1(2H)-yl)-1-isopropyl-N-methyl-N-(piperidin-4-ylmethyl)-1H-indole-6-carboxamide] here?
**A.** 31.6 nM

**Q.** How did the IC50 turn out when O=C1CCN(c2cc(F)cc3c2cnn3C2CCNCC2)C(=O)N1 [ECB10, 1-(6-Fluoro-1-(piperidin-4-yl)-1H-indazol-4-yl)dihydropyrimidine-2,4(1H,3H)-dione] was run?
**A.** 200 nM

**Q.** With CC(C)n1ccc2c(N3CCC(=O)NC3=O)cc(C(=O)N(C)C3CCNCC3)cc21 [ECB15, 4-(2,4-Dioxotetrahydropyrimidin-1(2H)-yl)-1-isopropyl-N-methyl-N-(piperidin-4-yl)-1H-indole-6-carboxamide] as the compound, how does the IC50 read?
**A.** 25.1 nM

**Q.** O=C1CCN(c2nccc3c2cnn3C2CCNCC2)C(=O)N1 [ECB7, 1-(1-(piperidin-4-yl)-1H-pyrazolo[4,3-c]pyridin-4-yl)dihydropyrimidine-2,4(1H,3H)-dione] was tested. Which IC50 did it give?
**A.** 79.4 nM

**Q.** With Cn1ccc2c(N3CCC(=O)NC3=O)nccc21 [ECB47, 1-(1-Methyl-1H-pyrrolo[3,2-c]pyridin-4-yl)dihydropyrimidine-2,4(1H,3H)-dione] as the compound, how does the IC50 read?
**A.** 575 nM

biological target: T2, Androgen Receptor (Homo sapiens, UniProt P10275, T878A); experiment: Androgen Receptor Degradation Assay (Nano-Glo HiBiT); format: cell-based; details: HiBiT-tagged AR in human LnCaP cells, 18 h
T2 construct: the AR gene was modified, using CRISPR/Cas9 editing, so the expressed AR protein included an 11 amino acid HiBiT tag; endogenous in cells; host or cells: clonal LnCaP-derived line, AR gene edited by CRISPR/Cas9
T2 sequence (P10275 whole entry T878A): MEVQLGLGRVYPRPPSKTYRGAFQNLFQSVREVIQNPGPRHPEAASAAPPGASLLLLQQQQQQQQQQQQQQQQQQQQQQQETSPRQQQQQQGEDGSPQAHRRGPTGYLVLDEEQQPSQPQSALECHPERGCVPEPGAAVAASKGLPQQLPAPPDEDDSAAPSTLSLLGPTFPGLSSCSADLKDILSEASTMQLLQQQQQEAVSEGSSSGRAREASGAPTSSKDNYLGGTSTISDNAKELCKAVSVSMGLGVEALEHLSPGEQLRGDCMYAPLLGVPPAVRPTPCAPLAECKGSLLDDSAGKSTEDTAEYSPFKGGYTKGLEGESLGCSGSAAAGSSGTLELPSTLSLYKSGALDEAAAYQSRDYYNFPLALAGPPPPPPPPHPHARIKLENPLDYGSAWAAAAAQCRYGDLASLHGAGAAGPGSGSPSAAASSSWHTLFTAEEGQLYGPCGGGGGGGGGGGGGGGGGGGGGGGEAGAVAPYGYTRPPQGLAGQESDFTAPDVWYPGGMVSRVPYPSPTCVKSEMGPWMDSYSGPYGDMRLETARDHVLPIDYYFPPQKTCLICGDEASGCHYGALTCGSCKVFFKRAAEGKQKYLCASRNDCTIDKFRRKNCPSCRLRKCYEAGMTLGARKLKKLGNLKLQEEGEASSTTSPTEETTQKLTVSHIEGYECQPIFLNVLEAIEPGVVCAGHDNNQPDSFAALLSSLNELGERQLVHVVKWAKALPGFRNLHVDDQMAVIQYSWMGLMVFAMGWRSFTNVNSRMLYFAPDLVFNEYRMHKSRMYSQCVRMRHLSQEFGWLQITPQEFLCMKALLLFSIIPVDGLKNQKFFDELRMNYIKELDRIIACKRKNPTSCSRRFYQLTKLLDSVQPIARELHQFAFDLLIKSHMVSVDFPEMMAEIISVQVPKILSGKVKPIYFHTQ
T2 sequence (Q96SW2 whole entry partner): as the sequence (Q96SW2 whole entry, stated change not applied) above
T2 sequence (Q16531 whole entry partner): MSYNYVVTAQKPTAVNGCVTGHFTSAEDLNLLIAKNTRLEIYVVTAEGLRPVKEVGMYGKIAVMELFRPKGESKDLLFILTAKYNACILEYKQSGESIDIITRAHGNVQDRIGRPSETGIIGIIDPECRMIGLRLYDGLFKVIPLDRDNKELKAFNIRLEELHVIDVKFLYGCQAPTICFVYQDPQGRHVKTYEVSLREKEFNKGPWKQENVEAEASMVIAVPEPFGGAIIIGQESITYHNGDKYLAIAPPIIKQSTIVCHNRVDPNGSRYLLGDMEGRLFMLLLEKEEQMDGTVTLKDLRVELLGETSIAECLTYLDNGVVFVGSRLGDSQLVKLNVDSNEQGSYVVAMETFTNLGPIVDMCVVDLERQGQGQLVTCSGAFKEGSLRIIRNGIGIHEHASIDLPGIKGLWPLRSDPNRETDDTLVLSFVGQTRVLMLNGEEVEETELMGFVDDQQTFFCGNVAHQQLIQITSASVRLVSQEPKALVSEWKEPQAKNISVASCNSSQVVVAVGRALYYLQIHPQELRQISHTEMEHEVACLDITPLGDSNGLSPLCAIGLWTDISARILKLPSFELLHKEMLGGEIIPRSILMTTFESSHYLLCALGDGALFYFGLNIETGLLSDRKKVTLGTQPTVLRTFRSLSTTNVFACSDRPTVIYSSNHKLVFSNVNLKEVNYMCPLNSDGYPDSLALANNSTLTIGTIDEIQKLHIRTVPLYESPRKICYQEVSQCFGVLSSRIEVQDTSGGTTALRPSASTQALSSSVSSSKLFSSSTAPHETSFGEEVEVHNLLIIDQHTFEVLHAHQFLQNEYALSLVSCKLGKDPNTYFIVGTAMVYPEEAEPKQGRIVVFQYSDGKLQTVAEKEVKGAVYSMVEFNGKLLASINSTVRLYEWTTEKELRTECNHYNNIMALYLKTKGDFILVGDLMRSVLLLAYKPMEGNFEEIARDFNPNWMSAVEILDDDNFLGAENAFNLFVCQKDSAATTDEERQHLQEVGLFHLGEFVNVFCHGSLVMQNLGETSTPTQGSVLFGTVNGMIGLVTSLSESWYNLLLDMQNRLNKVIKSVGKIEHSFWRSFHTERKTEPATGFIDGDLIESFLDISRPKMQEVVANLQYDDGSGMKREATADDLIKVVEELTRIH
Outline: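 LnCaP cells with CRISPR-knocked-in N-terminal HiBiT-tagged AR (10,000/well) treated 18 h at 37 °C with PROTACs over 11 threefold concentrations; lytic HiBiT luminescence normalised to DMSO (0%) and cell-free (100%) controls. Relative DC50 = 4-parameter fit inflection; absolute DC50 = 50% degradation interpolation; Dmax = maximum observed degradation.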

**Q.** CC1(C)[C@H](NC(=O)c2ncc(N3CCC(CN4CCC(n5ncc6c(N7CCC(=O)NC7=O)nccc65)CC4)CC3)cn2)C(C)(C)[C@H]1Oc1ccc(C#N)c(Cl)c1 [EAR273, N-((1r,3r)-3-(3-Chloro-4-cyanophenoxy)-2,2,4,4-tetramethylcyclobutyl)-5-(4-((4-(4-(2,4-dioxotetrahydropyrimidin-1(2H)-yl)-1H-pyrazolo[4,3-c]pyridin-1-yl)piperidin-1-yl)methyl)piperidin-1-yl)pyrimidine-2-carboxamide] was tested. Which “mean relative pDC50” value did it give?
**A.** 5.67

same assay, conditions: LNCaP, 18 h, HiBiT-tagged AR in human LnCaP cells, read-out: mean asymptote max

**Q.** With CC1(C)C(=O)N(c2ccc(C#N)c(C(F)(F)F)c2)C(=S)N1c1ccc(N2CCC(CN3CCC(n4ccc5c(N6CCC(=O)NC6=O)cncc54)CC3)CC2)cc1 [EAR101, 4-(3-(4-(4-((4-(4-(2,4-Dioxotetrahydropyrimidin-1(2H)-yl)-1H-pyrrolo[2,3-c]pyridin-1-yl)piperidin-1-yl)methyl)piperidin-1-yl)phenyl)-4,4-dimethyl-5-oxo-2-thioxoimidazolidin-1-yl)-2-(trifluoromethyl)benzonitrile] as the compound, how does the Dmax read?
**A.** ≥ 50%

**Q.** For C[C@@H]1CN(C(=O)Nc2cnc(N3CCC(CN4CCC(n5ccc6c(N7CCC(=O)NC7=O)cccc65)CC4)CC3)nc2)[C@@H](C)CN1c1ccc(C#N)c(Cl)c1 [EAR116, (2S,5R)-4-(3-Chloro-4-cyanophenyl)-N-(2-(4-((4-(4-(2,4-dioxotetrahydropyrimidin-1(2H)-yl)-1H-indol-1-yl)piperidin-1-yl)methyl)piperidin-1-yl)pyrimidin-5-yl)-2,5-dimethylpiperazine-1-carboxamide], which Dmax is on record?
**A.** ≥ 50%

**Q.** N#Cc1ccc(O[C@H]2CC[C@H](NC(=O)c3ccc(N4CCC(CN5CCC(n6ccc7c(N8CCC(=O)NC8=O)ncnc76)CC5)CC4)cc3)CC2)cc1Cl [EAR195, N-((1r,4r)-4-(3-chloro-4-cyanophenoxy)cyclohexyl)-4-(4-((4-(4-(2,4-dioxotetrahydropyrimidin-1(2H)-yl)-7H-pyrrolo[2,3-d]pyrimidin-7-yl)piperidin-1-yl)methyl)piperidin-1-yl)benzamide hydrochloride] was tested. Which Dmax did it give?
**A.** ≥ 50%

**Q.** Which Dmax does the source give for CC1(C)[C@H](NC(=O)c2ncc(N3CCC(CN4CCC(n5ncc6c(N7CCC(=O)NC7=O)nccc65)CC4)CC3)cn2)C(C)(C)[C@H]1Oc1ccc(C#N)c(Cl)c1 [EAR273, N-((1r,3r)-3-(3-Chloro-4-cyanophenoxy)-2,2,4,4-tetramethylcyclobutyl)-5-(4-((4-(4-(2,4-dioxotetrahydropyrimidin-1(2H)-yl)-1H-pyrazolo[4,3-c]pyridin-1-yl)piperidin-1-yl)methyl)piperidin-1-yl)pyrimidine-2-carboxamide] here?
**A.** ≥ 50%

**Q.** Which Dmax does the source give for N#Cc1ccc(O[C@H]2CC[C@H](NC(=O)c3ccc(N4CCCC(CN5CCC(n6ncc7c(N8CCC(=O)NC8=O)cccc76)CC5)C4)nn3)CC2)cc1Cl (stereo partly shown) [EAR36, N-((1r,4r)-4-(3-Chloro-4-cyanophenoxy)cyclohexyl)-6-(3-((4-(4-(2,4-dioxotetrahydropyrimidin-1(2H)-yl)-1H-indazol-1-yl)piperidin-1-yl)methyl)piperidin-1-yl)pyridazine-3-carboxamide] here?
**A.** ≥ 50%

**Q.** C[C@@H]1CN(c2ccc(C#N)c(Cl)c2)[C@@H](C)CN1C(=O)Nc1ccc(N2CCC(CCN3CCC(n4ccc5c(N6CCC(=O)NC6=O)cccc54)CC3)CC2)nc1 [EAR117, (2R,5S)-4-(3-Chloro-4-cyanopheny)-N-(6-(4-(2-(4-(4-(2,4-dioxotetrahydropyrimidin-1(2H)-yl)-1H-indol-1-yl)piperidin-1-yl)ethyl)piperidin-1-yl)pyridin-3-yl)-2,5-dimethylpiperazine-1-carboxamide] was tested. Which Dmax did it give?
**A.** ≥ 50%

**Q.** Which Dmax does the source give for N#Cc1ccc(O[C@H]2CC[C@H](NC(=O)c3cnc(N4CCC(CN5CCC(n6ccc7c(N8CCC(=O)NC8=O)cccc76)CC5)CC4)cn3)CC2)cc1Cl [EAR9, N-((1r,4r)-4-(3-Chloro-4-cyanophenoxy)cyclohexyl)-5-(4-((4-(4-(2,4-dioxotetrahydropyrimidin-1(2H)-yl)-1H-indol-1-yl)piperidin-1-yl)methyl)piperidin-1-yl)pyrazine-2-carboxamide] here?
**A.** ≥ 50%

**Q.** With N#Cc1ccc(O[C@H]2CC[C@H](NC(=O)c3ccc(N4CCC(CN5CCC(n6ccc7c(-n8ccc(=O)[nH]c8=O)cccc76)CC5)CC4)nn3)CC2)cc1Cl [EAR141, N-((1r,4r)-4-(3-Chloro-4-cyanophenoxy)cyclohexyl)-6-(4-((4-(4-(2,4-dioxo-3,4-dihydropyrimidin-1(2H)-yl)-1H-indol-1-yl)piperidin-1-yl)methyl)piperidin-1-yl)pyridazine-3-carboxamide, hydrochloride] as the compound, how does the Dmax read?
**A.** ≥ 50%

**Q.** How did the Dmax turn out when N#Cc1ccc(O[C@H]2CC[C@H](NC(=O)c3ccc(N4CCC(CN5CCC(n6ncc7c(N8CCC(=O)NC8=O)cccc76)CC5)CC4)nc3)CC2)cc1C(F)(F)F [EAR40, N-((1r,4r)-4-(4-Cyano-3-(trifluoromethyl)phenoxy)cyclohexyl)-6-(4-((4-(4-(2,4-dioxotetrahydropyrimidin-1(2H)-yl)-1H-indazol-1-yl)piperidin-1-yl)methyl)piperidin-1-yl)nicotinamide hydrochloride] was run?
**A.** ≥ 50%

**Q.** With N#Cc1ccc(O[C@H]2CC[C@H](NC(=O)c3cnc(N4CCC(CN5CCC(n6ccc7c(N8CCC(=O)NC8=O)cncc76)CC5)CC4)cn3)CC2)cc1C(F)(F)F [AR15, N-((1r,4r)-4-(4-Cyano-3-(trifluoromethyl)phenoxy)cyclohexyl)-5-(4-((4-(4-(2,4-dioxotetrahydropyrimidin-1(2H)-yl)-1H-pyrrolo[2,3-c]pyridin-1-yl)piperidin-1-yl)methyl)piperidin-1-yl)pyrazine-2-carboxamide] as the compound, how does the Dmax read?
**A.** ≥ 50%

**Q.** N#Cc1ccc(O[C@H]2CC[C@H](NC(=O)c3ccc(N4CCC(CN5CCC(n6ccc7c(N8CCC(=O)NC8=O)cccc76)CC5)CC4)cc3F)CC2)cc1Cl [EAR187, N-((1r,4r)-4-(3-Chloro-4-cyanophenoxy)cyclohexyl)-4-(4-((4-(4-(2,4-dioxotetrahydropyrimidin-1(2H)-yl)-1H-indol-1-yl)piperidin-1-yl)methyl)piperidin-1-yl)-2-fluorobenzamide] was tested. Which Dmax did it give?
**A.** ≥ 50%

**Q.** With N#Cc1ccc(O[C@H]2CC[C@H](NC(=O)c3ccc(N4CCC(CN5CCC(n6ccc7c(N8CCC(=O)NC8=O)cccc76)CC5)CC4)nn3)CC2)cc1Cl [EAR23, N-((1r,4r)-4-(3-Chloro-4-cyanophenoxy)cyclohexyl)-6-(4-((4-(4-(2,4-dioxotetrahydropyrimidin-1(2H)-yl)-1H-indol-1-yl)piperidin-1-yl)methyl)piperidin-1-yl)pyridazine-3-carboxamide] as the compound, how does the Dmax read?
**A.** ≥ 50%
